This is an account of results in patent publication US7232912B2, “Indazole compounds, pharmaceutical compositions, and methods for mediating or inhibiting cell proliferation” (Agouron Pharmaceuticals, Inc., priority 2000, dated 2007).

In one experiment the target is T1, VEGF-R2 (Homo sapiens, UniProt P35968, DEL940-989/E990V).
T1 construct: VEGF-R2Δ50 contains residues 806–939 and 990–1171; made in house; host or cells: baculovirus/insect cells
Briefly: VEGF-R2 Assay (coupled spectrophotometric FLVK-P / ELISA). To be noted: for inhibition at 1 µM: read-out: VEGF % Inhib. at 1 μM. In kind it is biochemical. The source says:
VEGF-R2 Construct for Assay
This construct determines the ability of a test compound to inhibit tyrosine kinase activity. A construct (VEGF-R2Δ50) of the cytosolic domain of human vascular endothelial growth factor receptor 2 (VEGF-R2) lacking the 50 central residues of the 68 residues of the kinase insert domain was expressed in a baculovirus/insect cell system. Of the 1356 residues of full-length VEGF-R2, VEGF-R2Δ50 contains residues 806–939 and 990–1171, and also one point mutation (E990V) within the kinase insert domain relative to wild-type VEGF-R2. […] See Parast et al., Biochemistry, 37,16788–16801 (1998).
Coupled Spectrophotometric (FLVK-P) Assay
The production of ADP from ATP that accompanies phosphoryl transfer was coupled to oxidation of NADH using phosphoenolpyruvate (PEP) and a system having pyruvate kinase (PK) and lactic dehydrogenase (LDH). The oxidation of NADH was monitored by following the decrease of absorbance at 340 nm (e340=6.22 cm^1 mM^−1) using a Beckman DU 650 spectrophotometer. Assay conditions for phosphorylated VEGF-R2A50 (indicated as FLVK-P in the tables below) were the following: 1 mM PEP; 250 μM NADH; 50 units of LDH/mL; 20 units of PK/mL; 5 mM DTT; 5.1 mM poly(E4Y1); 1 mM ATP; and 25 mM MgCl2 in 200 mM Hepes, pH 7.5. Assay conditions for unphosphorylated VEGF-R2A50 (indicated as FLVK in the tables) were the following: 1 mM PEP; 250 μM NADH; 50 units of LDH/mL; 20 units of PK/mL; 5 mM DTT; 20 mM poly(E4Y1); 3 mM ATP; and 60 mM MgCl2 and 2 mM MnCl2 in 200 mM Hepes, pH 7.5. Assays were initiated with 5 to 40 nM of enzyme. Ki values were determined by measuring enzyme activity in the presence of varying concentrations of test compounds. The data were analyzed using Enzyme Kinetic and Kaleidagraph software.
Formation of phosphogastrin was monitored using biotinylated gastrin peptide (1–17) as substrate. Biotinylated phosphogastrin was immobilized using streptavidin coated 96-well microtiter plates followed by detection using anti-phosphotyrosine-antibody conjugated to horseradish peroxidase. The activity of horseradish peroxidase was monitored using 2,2′-azino-di-[3-ethylbenzathiazoline sulfonate(6)] diammonium salt (ABTS). Typical assay solutions contained: 2 μM biotinylated gastrin peptide; 5 mM DTT; 20 μM ATP; 26 mM MgCl2; and 2 mM MnCl2 in 200 mM Hepes, pH 7.5. The assay was initiated with 0.8 nM of phosphorylated VEGF-R2Δ50. Horseradish peroxidase activity was assayed using ABTS, 10 mM. The horseradish peroxidase reaction was quenched by addition of acid (H2SO4), followed by absorbance reading at 405 nm. Ki values were determined by measuring enzyme activity in the presence of varying concentrations of test compounds. The data were analyzed using Enzyme Kinetic and Kaleidagraph software.

Another experiment deals with HCT 116 cell line. The experiment can be described thus: Inhibition of Cell Growth (MTT tetrazolium salt assay). It counts as cell-based. The note with it: Homo sapiens. The method in brief: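 HCT 116 cells in McCoy's 5A were dosed 4 h after plating, in 0.5% (v/v) DMSO, then held 4–6 days at 37 °C, 5% CO2. MTT at 0.2 mg/mL final for 4 h; DMSO-solubilized formazan read at 540 nm. IC50 taken from the linear part of a semi-log plot versus DMSO-only controls.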

Where [1] appears, read: HCT 116, MTT, 50% inhibition of growth, read-out: HCT 116 IC50.
The mark [2] stands for this setting: HCT 116, MTT, IC90, read-out: HCT 116 IC90.
Setting [3] is: HCT-116, read-out: HCT 116 IC50 (uM).
Setting [4] is: HCT-116, read-out: HCT 116 IC90 (uM).

SMILES strings stand for the structures. Where two headings read alike, the source gives them in different places.

T1 sequence (P35968 with tags, fused parts or gaps DEL940-989/E990V limits assumed): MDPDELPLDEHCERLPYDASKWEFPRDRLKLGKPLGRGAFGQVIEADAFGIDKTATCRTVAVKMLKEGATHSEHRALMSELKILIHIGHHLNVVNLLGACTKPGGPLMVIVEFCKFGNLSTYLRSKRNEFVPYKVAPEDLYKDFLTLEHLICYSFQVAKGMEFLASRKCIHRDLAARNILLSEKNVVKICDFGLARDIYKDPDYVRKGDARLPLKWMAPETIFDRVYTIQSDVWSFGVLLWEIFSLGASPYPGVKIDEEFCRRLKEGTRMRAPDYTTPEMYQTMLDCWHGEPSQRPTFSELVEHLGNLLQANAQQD

In general, IC50 refers to the midpoint of a concentration-inhibition curve. A word on the IC90: it is the concentration at which the effect reaches the 90% level. As to `C(=C\c1n[nH]c2ccc(-c3cncc4ccccc34)cc12)/c1ccccc1` [Example 16], the inhibition at 1 µM on VEGF-R2 amounted to 36%. Besides, the IC50 with HCT 116 cell line (setting [1]) is 3 µM. In addition, in the experiment on HCT 116 cell line (setting [2]), the concentration for an effect of 90% (IC90) was 5 µM.
For `OCc1cccc2[nH]c(-c3n[nH]c4ccc(-c5cncc6ccccc56)cc34)nc12` [Example 29, [2-(5-Isoquinolin-4-yl-1H-indazol-3-yl)-1H-benzoimidazol-4-yl]-methanol], in that order: 6%, 0.18 µM and 0.8 µM.
By Ki is commonly meant the equilibrium dissociation constant of an inhibitor or competing ligand from its target. With `CN(C)Cc1cccc2[nH]c(-c3n[nH]c4ccc(-c5cncc6ccccc56)cc34)nc12` [Example 31, [2-(5-Isoquinolin-4-yl-1H-indazol-3-yl)-1H-benzoimidazol-4-ylmethyl]-dimethyl-amine], on VEGF-R2, the Ki was 2900 nM and the inhibition at 1 µM worked out at 17%.
For the compound `CCN(CC)Cc1cccc2[nH]c(-c3n[nH]c4ccc(-c5cncc6ccccc56)cc34)nc12` [Example 36, Diethyl-[2-(5-isoquinolin-4-yl-1H-indazol-3-yl)-1H-benzoimidazol-4-ylmethyl]-amine], the inhibition at 1 µM on VEGF-R2 came to 15%. Further, the IC50 in the experiment on HCT 116 cell line (setting [1]) turned out to be 0.024 µM. Besides, the concentration for an effect of 90% (IC90) in the experiment on HCT 116 cell line (setting [2]) came to 0.06 µM.
As to `CCNCc1cccc2[nH]c(-c3n[nH]c4ccc(-c5cncc6ccccc56)cc34)nc12` [Example 37, Ethyl-[2-(5-isoquinolin-4-yl-1H-indazol-3-yl)-1H-benzoimidazol-4-ylmethyl]-amine], the inhibition at 1 µM on VEGF-R2 was determined as 17%. For the same compound, the IC50 with HCT 116 cell line (setting [3]) worked out at 0.041 µM. Besides, in the experiment with HCT 116 cell line (setting [4]), the concentration for an effect of 90% (IC90) amounted to 0.12 µM.
In the case of `CC(C)NCc1cccc2[nH]c(-c3n[nH]c4ccc(-c5cncc6ccccc56)cc34)nc12` [Example 38, Isopropyl-[2-(5-isoquinolin-4-yl-1H-indazol-3-yl)-1H-benzoimidazol-4-ylmethyl]-amine], the inhibition at 1 µM at VEGF-R2 was 9%. For the same compound, the 50% inhibitory concentration (IC50) in the experiment on HCT 116 cell line (setting [3]) came to 0.029 µM. The IC90 in the experiment on HCT 116 cell line (setting [4]) is 0.06 µM.
For `CCc1cncc(-c2ccc3[nH]nc(/C=C/c4ccccc4)c3c2)c1Cl` [Example 46, 5-(4-Chloro-5-ethyl-pyridin-3-yl)-3-(E)-styryl-1H-indazole], the inhibition at 1 µM at VEGF-R2 was found to be 51%.
For `c1ccc2[nH]c(-c3n[nH]c4ccc(-c5cccc6[nH]ccc56)cc34)nc2c1` [Example 48, 3-(1H-Benzoimidazol-2-yl)-5-(1H-indol-4-yl)-1H-indazole], the IC50 in the experiment with HCT 116 cell line (setting [1]) stood at 3.9 µM. The IC90 with HCT 116 cell line (setting [2]) stood at 5 µM.
For `Clc1ccncc1-c1ccc2[nH]nc(-c3nc4ccccc4[nH]3)c2c1` [Example 52, 3-(1H-Benzoimidazol-2-yl)-5-(4-chloro-pyridin-3-yl)-1H-indazole], the inhibition at 1 µM at VEGF-R2 was 38%. Also, in the experiment with HCT 116 cell line (setting [1]), the IC50 was 0.5 µM. Further, the concentration for an effect of 90% (IC90) in the experiment with HCT 116 cell line (setting [2]) came out at 2.2 µM.
For the compound `Cc1c(-c2ccncc2)cncc1-c1ccc2[nH]nc(-c3nc4ccccc4[nH]3)c2c1` [Example 53, 5-[3-(1H-Benzoimidazol-2-yl)-1H-indazol-5-yl]-4-methyl-[3,4′]bipyridinyl], the inhibition at 1 µM at VEGF-R2 worked out at 32%. Also, the IC50 with HCT 116 cell line (setting [1]) amounted to 0.2 µM. Also, the 90% effect concentration (IC90) with HCT 116 cell line (setting [2]) turned out to be 0.75 µM.
For `c1ccc2[nH]c(-c3n[nH]c4ccc(-c5cncc6c5CCCN6)cc34)nc2c1` [Example 54], in that order: 46%, 0.079 µM and 0.23 µM.
Consider `O=C(Nc1cccc2c(-c3ccc4[nH]nc(-c5nc6ccccc6[nH]5)c4c3)cncc12)c1cccnc1` [Example 55, N-{4-[3-(1H-Benzoimidazol-2-yl)-1H-indazol-5-yl]-isoquinolin-8-yl}-nicotinamide], for which the inhibition at 1 µM on VEGF-R2 was 32%. Further, in the experiment with HCT 116 cell line (setting [1]), the IC50 amounted to 1.5 µM. Further, the concentration for an effect of 90% (IC90) in the experiment with HCT 116 cell line (setting [2]) came out at 5 µM.
The like results for `Cc1c(-c2cccnc2)cncc1-c1ccc2[nH]nc(-c3nc4ccccc4[nH]3)c2c1` [Example 58] were, in that order, 17%, 0.46 µM and 1.3 µM.
Turning to `Cc1c(/C=C/CO)cncc1-c1ccc2[nH]nc(-c3nc4ccccc4[nH]3)c2c1` [Example 59, (E)-3-{5-[3-(1H-Benzoimidazol-2-yl)-1H-indazol-5-yl]-4-methyl-pyridin-3-yl}-prop-2-en-1-ol], the inhibition at 1 µM on VEGF-R2 is 31%. In addition, the concentration for half-maximal inhibition (IC50) in the experiment with HCT 116 cell line (setting [1]) is 0.2 µM. For the same compound, in the experiment on HCT 116 cell line (setting [2]), the concentration for an effect of 90% (IC90) was 0.48 µM.
The like results for `Cc1c(CCCO)cncc1-c1ccc2[nH]nc(-c3nc4ccccc4[nH]3)c2c1` [Example 60, (E)-3-{5-[3-(1H-Benzoimidazol-2-yl)-1H-indazol-5-yl]-4-methyl-pyridin-3-yl}-propan-1-ol] were, in that order, 26%, 0.2 µM and 0.5 µM.
The like results for `CCc1c(-c2ccncc2)cncc1-c1ccc2[nH]nc(-c3nc4ccccc4[nH]3)c2c1` [Example 61, 5-[3-(1H-Benzoimidazol-2yl)-1H-indazol-5-yl]-4ethyl-[3,4′]bipyridinyl] were, in that order, 18%, 0.22 µM and 0.5 µM.
The like results for `Cc1c(-c2cccc(CO)c2)cncc1-c1ccc2[nH]nc(-c3nc4ccccc4[nH]3)c2c1` [Example 69, (3-{5-[3-(1H-Benzoimidazol-2-yl)-1H-indazol-5-yl]-4-methyl-pyridin-3-yl}-phenyl)-methanol] were, in that order, 38%, 0.69 µM and 2.1 µM.
On to `CS(=O)(=O)Nc1ccc2nc(-c3n[nH]c4ccc(-c5cncc6ccccc56)cc34)[nH]c2c1` [Example 70, N-[2-(5-Isoquinolin-4-yl-1H-indazol-3-yl)-3H-benzoimidazol-5-yl]-methanesulfonamide], for which the inhibition at 1 µM on VEGF-R2 was found to be 45%. Further, the IC50 in the experiment on HCT 116 cell line (setting [1]) is 0.18 µM. In addition, the IC90 with HCT 116 cell line (setting [2]) turned out to be 0.44 µM.
Regarding `Cc1c(-c2ccncc2)cncc1-c1ccc2[nH]nc(-c3nc4ccc(NS(C)(=O)=O)cc4[nH]3)c2c1` [Example 71, N-{2-[5-(4-methyl-[3,4′]bipyridinyl-5-yl)-1H-indazol-3-yl)-3H-benzoimidazol-5-yl]-methanesulfonamide], at VEGF-R2, the inhibition at 1 µM worked out at 42%. Besides, the IC50 in the experiment on HCT 116 cell line (setting [1]) was 0.7 µM. Besides, the IC90 with HCT 116 cell line (setting [2]) came out at 2 µM.
Regarding `Cc1c(CO)cncc1-c1ccc2[nH]nc(-c3nc4ccccc4[nH]3)c2c1` [Example 72, {5-[3-(1H-Benzoimidazol-2-yl)-1H-indazol-5-yl]-4-methyl-pyridin-3-yl}-methanol], on VEGF-R2, the inhibition at 1 µM was determined as 24%. For the same compound, the half-maximal inhibitory concentration (IC50) with HCT 116 cell line (setting [1]) was 0.15 µM. For the same compound, the 90% effect concentration (IC90) with HCT 116 cell line (setting [2]) was 0.53 µM.
Take `Cc1c(CN(C)C)cncc1-c1ccc2[nH]nc(-c3nc4ccccc4[nH]3)c2c1` [Example 73, {5-[3-(1H-Benzoimidazol-2-yl)-1H-indazol-5-yl]-4-methyl-pyridin-3-ylmethyl}-dimethyl-amine]: at VEGF-R2, the inhibition at 1 µM was 15%. Also, in the experiment with HCT 116 cell line (setting [1]), the concentration for half-maximal inhibition (IC50) turned out to be 0.2 µM. Also, the IC90 in the experiment with HCT 116 cell line (setting [2]) worked out at 0.6 µM.
As for `CCNCc1cncc(-c2ccc3[nH]nc(-c4nc5ccccc5[nH]4)c3c2)c1C` [Example 74, {5-[3-(1H-Benzoimidazol-2-yl)-1H-indazol-5-yl]-4-methyl-pyridin-3-ylmethyl}-ethyl-amine], on VEGF-R2, the inhibition at 1 µM came to 14%.
